Data: patent US5336758A, “Peptides stimulating cytotoxic T cells immune to HIV RT” (The United States of America as represented by the …, priority 1990, dated 1994)

System: L-cells
Assay type: cell-based, murine
Details: spontaneous lysis and cell recovery in presence of peptide alone (data not shown)
Source text: Identification of the immunodominant epitope recognized by the line Pol a: To identify the epitope(s) contained in this area, we used 21 overlapping 15-amino acid peptides designated HP134 to HP154 covering residues 168 to 316. […] HP138 ([…]) corresponds to residues 205-219 of the HTLV/IIIB strain sequence (32). […] The line Pol a was Class I MHC-restricted because it killed HP 138-pulsed, Class II MHC molecule-negative H-2^k L-cell fibroblasts, but not 3T3 fibroblasts (H-2^d) or EL4 thymoma cells (H-2^b).

With `CC[C@H](C)[C@H](NC(=O)[C@H](CCCCN)NC(=O)[C@H](CO)NC(=O)[C@@H](NC(=O)[C@H](CCCCN)NC(=O)CNC(=O)[C@H](CCC(=O)O)NC(=O)[C@H](CCCCN)NC(=O)[C@H](CCC(=O)O)NC(=O)[C@H](CCSC)NC(=O)[C@H](CCC(=O)O)NC(=O)[C@@H](NC(=O)[C@@H](N)CS)[C@@H](C)O)[C@@H](C)CC)C(=O)NCC(=O)N1CCC[C@H]1C(=O)O` [HP138] the “toxicity of the peptide by itself” value was “not toxic by itself”.
